This note sets out measurements from ChEMBL document CHEMBL1131212, “Synthesis and adrenergic activity of a new series of N-aryl dicyclopropyl ketone oxime ethers: SAR and stereochemical aspects” (J Med Chem, 1998).

Experiment [1] deals with T1, Adrenergic receptor alpha-1 (Rattus norvegicus, UniProt P15823+P23944+P43140).
T1 sequence (P15823 whole entry): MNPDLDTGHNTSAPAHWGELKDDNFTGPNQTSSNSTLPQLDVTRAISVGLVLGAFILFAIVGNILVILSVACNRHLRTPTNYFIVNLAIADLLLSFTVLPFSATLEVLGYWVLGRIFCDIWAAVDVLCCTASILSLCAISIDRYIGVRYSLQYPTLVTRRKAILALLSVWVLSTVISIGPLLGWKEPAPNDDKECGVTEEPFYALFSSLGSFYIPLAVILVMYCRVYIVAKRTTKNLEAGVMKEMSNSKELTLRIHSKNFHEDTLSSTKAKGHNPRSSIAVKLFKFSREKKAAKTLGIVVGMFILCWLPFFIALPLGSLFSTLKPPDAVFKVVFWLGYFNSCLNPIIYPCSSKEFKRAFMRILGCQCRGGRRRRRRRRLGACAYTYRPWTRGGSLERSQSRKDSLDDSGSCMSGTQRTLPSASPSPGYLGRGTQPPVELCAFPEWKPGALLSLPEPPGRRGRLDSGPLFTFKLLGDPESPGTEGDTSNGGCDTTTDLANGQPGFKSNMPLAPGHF
T1 sequence (P23944 whole entry): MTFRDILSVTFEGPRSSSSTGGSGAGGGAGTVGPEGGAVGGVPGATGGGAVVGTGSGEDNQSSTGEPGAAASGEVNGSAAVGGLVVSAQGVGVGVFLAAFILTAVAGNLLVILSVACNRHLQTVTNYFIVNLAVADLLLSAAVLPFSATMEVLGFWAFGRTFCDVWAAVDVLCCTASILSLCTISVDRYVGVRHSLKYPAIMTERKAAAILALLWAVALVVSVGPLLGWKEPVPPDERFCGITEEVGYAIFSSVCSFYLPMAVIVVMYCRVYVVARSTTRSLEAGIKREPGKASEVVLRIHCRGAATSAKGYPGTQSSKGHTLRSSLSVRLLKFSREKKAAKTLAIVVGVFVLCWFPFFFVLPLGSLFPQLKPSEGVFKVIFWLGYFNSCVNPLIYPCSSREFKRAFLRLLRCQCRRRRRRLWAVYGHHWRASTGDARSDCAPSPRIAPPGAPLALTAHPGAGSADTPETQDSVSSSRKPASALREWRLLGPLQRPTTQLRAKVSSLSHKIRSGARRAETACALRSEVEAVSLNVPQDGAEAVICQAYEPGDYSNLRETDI
T1 sequence (P43140 whole entry): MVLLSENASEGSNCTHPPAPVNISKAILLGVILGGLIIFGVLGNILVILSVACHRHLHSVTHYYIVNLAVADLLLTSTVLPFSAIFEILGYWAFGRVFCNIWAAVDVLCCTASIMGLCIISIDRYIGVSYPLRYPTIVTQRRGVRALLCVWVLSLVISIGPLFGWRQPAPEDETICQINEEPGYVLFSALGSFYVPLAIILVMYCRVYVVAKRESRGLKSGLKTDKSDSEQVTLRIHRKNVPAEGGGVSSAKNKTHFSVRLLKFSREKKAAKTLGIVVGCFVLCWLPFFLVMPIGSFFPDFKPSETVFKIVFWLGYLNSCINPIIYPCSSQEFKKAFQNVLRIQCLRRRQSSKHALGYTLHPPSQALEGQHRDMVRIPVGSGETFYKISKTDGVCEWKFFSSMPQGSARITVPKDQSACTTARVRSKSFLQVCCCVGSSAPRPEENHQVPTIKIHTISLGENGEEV
Briefly: Inhibition of alpha-1 adrenergic receptor isolated from rat ventricle homogenates.

Another experiment has as its target Adrenergic receptor beta (Rattus norvegicus, UniProt P18090+P10608+P26255). Briefly: Inhibition of beta adrenergic receptor isolated from rat ventricle homogenates.
Experiment [2] is filed under the species Cavia porcellus. Briefly: Chronotropic effect studied in right atria isolated from guinea pig and is expressed in pA2. The following applies: read-out: pA2 (converted).
Experiment [3] is filed under the species Rattus norvegicus. Put plainly: The compound was tested for percent increase in heart rate with respect to that measured after isoprenaline in 5-10 animals. The experiment is classed as functional.
The test system of experiment [4] is Rattus norvegicus. Briefly: Tested for MED (smallest dose giving maximum effect) evaluated by dose-response curve, from 0.1 to 5 mg/kg in 5-10 animals on iv administration. Type of experiment: functional. As to conditions: dose mg/kg 0.1-5.
The species entered for experiment [5] is Cavia porcellus. Put plainly: Ionotropic effect in electrically driven left atrial preparation (Atria isolated from guinea pig) and is expressed in pA2. The following applies: Cardiac atrium, read-out: pA2 (converted).
For experiment [6], the target named is Adrenergic receptor beta (Rattus norvegicus) (UniProt P18090+P10608+P26255).
Description: In vitro inhibitory specificity for Beta adrenergic receptor was evaluated

Where only a bound is given, the exact number is not on record here.

Take `OC(CNc1ccccn1)CON=C(C1CC1)C1CC1` (stereo unspecified): the half-inhibitory concentration (IC50) (usually the concentration needed to halve the response being measured) in experiment [1] came out at 36400 nM; against Adrenergic receptor beta, 35.6 nM. The Kb in the experiment listed under Cavia porcellus [2] was 79.4 nM; in the experiment filed under Cavia porcellus [5], 63.1 nM. The Increase in the experiment listed under Rattus norvegicus [3] turned out to be 0%. The MED with Rattus norvegicus [4] stood at 4.4 µmol/kg. In experiment [6], the Specificity turned out to be 1020.
As to `CCCCc1ccc(NCC(O)CON=C(C2CC2)C2CC2)cc1` (stereo unspecified), the IC50 in experiment [1] was 30700 nM; against Adrenergic receptor beta, 7 nM. Further, the Kb in the experiment listed under Cavia porcellus [2] was 79.4 nM; in the experiment filed under Cavia porcellus [5], 251 nM. The same compound showed an Increase in the experiment listed under Rattus norvegicus [3] of 10%. The MED in the experiment on Rattus norvegicus [4] came out at 2.7 µmol/kg. The compound also returned a Specificity in experiment [6] of 4390.
In the case of `OC(CNc1ccccc1-c1ccccc1)CON=C(C1CC1)C1CC1` (stereo unspecified), the IC50 was more than 100000 nM in experiment [1] and 998 nM against Adrenergic receptor beta. Moreover, the Kb in the experiment filed under Cavia porcellus [2] was 100000 nM; in the experiment filed under Cavia porcellus [5] it was 25100 nM. The same compound came in with an Increase in the experiment filed under Rattus norvegicus [3] of 0%. This compound returned an MED in the experiment on Rattus norvegicus [4] of more than 12.9 µmol/kg. The compound further displayed a Specificity in experiment [6] of more than 100.
`Cc1ccc(NCC(O)CON=C(C2CC2)C2CC2)nc1` (stereo unspecified): in the experiment listed under Cavia porcellus [2], the Kb is 25100 nM.
As to `Cc1ccnc(NCC(O)CON=C(C2CC2)C2CC2)c1` (stereo unspecified), the IC50 in experiment [1] came out at 15300 nM; against Adrenergic receptor beta, 23.9 nM. Further, the Kb in the experiment listed under Cavia porcellus [2] was 31.6 nM; in the experiment filed under Cavia porcellus [5], 79.4 nM. In the experiment filed under Rattus norvegicus [3], this compound had an Increase of 0%. Besides, the MED in the experiment with Rattus norvegicus [4] is 2.6 µmol/kg. Also, the Specificity in experiment [6] is 640.
In turn, `CC(C)NCC(O)COc1cccc2ccccc12` (stereo unspecified) [PROPRANOLOL] yielded an Increase in the experiment filed under Rattus norvegicus [3] of 0%. Besides, in the experiment on Rattus norvegicus [4], the MED turned out to be 3 µmol/kg.
For the compound `OC(CNc1ccncc1)CON=C(C1CC1)C1CC1` (stereo unspecified), the IC50 is listed as 72300 nM in experiment [1] and 32.3 nM against Adrenergic receptor beta. Moreover, the results for the Kb in the experiment filed under Cavia porcellus [2] and in the experiment listed under Cavia porcellus [5] were 63.1 nM and 251 nM, respectively. Also, the Increase in the experiment filed under Rattus norvegicus [3] turned out to be 0%. In the experiment with Rattus norvegicus [4], this compound gave an MED of 3.7 µmol/kg. The same compound returned a Specificity in experiment [6] of 2240.
As for `CCOC(=O)c1ccc(NCC(O)CON=C(C2CC2)C2CC2)cc1` (stereo unspecified), the IC50 is on record as 95100 nM in experiment [1] and 12.8 nM at Adrenergic receptor beta. For the same compound, the Kb in the experiment listed under Cavia porcellus [2] was 79.4 nM; in the experiment filed under Cavia porcellus [5], 251 nM. For the same compound, the Increase in the experiment filed under Rattus norvegicus [3] amounted to 10%. The MED with Rattus norvegicus [4] amounted to 2.4 µmol/kg. The compound also returned a Specificity in experiment [6] of 7430.
Take `OC(CNc1nc2ccccc2s1)CON=C(C1CC1)C1CC1` (stereo unspecified): the IC50 in experiment [1] is given as more than 100000 nM; against Adrenergic receptor beta, 3.4 nM. Further, the figures for the Kb in the experiment listed under Cavia porcellus [2] and in the experiment listed under Cavia porcellus [5] were 15.8 nM and 25.1 nM, respectively. Moreover, the Increase in the experiment listed under Rattus norvegicus [3] is listed as 10%. The MED in the experiment with Rattus norvegicus [4] came to 4.1 µmol/kg. Moreover, the Specificity in experiment [6] is more than 29400.
On to `CC(C)(N)Cc1ccc(NCC(O)CON=C(C2CC2)C2CC2)cc1` (stereo unspecified), for which the Kb in the experiment listed under Cavia porcellus [2] is 501 nM.
`O=[N+]([O-])c1ccc(NCC(O)CON=C(C2CC2)C2CC2)cc1` (stereo unspecified): the IC50 in experiment [1] is reported as 19000 nM; at Adrenergic receptor beta it was 7.9 nM. Moreover, the figures for the Kb in the experiment filed under Cavia porcellus [2] and in the experiment listed under Cavia porcellus [5] were 100 nM and 251 nM, respectively. Further, in the experiment filed under Rattus norvegicus [3], the Increase worked out at 10%. The same compound yielded an MED with Rattus norvegicus [4] of 1.8 µmol/kg. In experiment [6], this compound displayed a Specificity of 2400.
For the compound `OC(CNc1ccccc1I)CON=C(C1CC1)C1CC1` (stereo unspecified), the IC50 in experiment [1] is recorded as 53000 nM; on Adrenergic receptor beta it was 108 nM. Moreover, the Kb in the experiment filed under Cavia porcellus [2] is 1260 nM; in the experiment listed under Cavia porcellus [5], 2510 nM. In the experiment filed under Rattus norvegicus [3], this compound came in with an Increase of 10%. In addition, the MED in the experiment with Rattus norvegicus [4] came out at 5.7 µmol/kg. The Specificity in experiment [6] is 490.
Take `OC(CNc1nc2ccccc2[nH]1)CON=C(C1CC1)C1CC1` (stereo unspecified): the 50% inhibitory concentration (IC50) in experiment [1] is recorded as more than 100000 nM; against Adrenergic receptor beta, 13.2 nM. For the same compound, the Kb in the experiment listed under Cavia porcellus [2] was 63.1 nM; in the experiment listed under Cavia porcellus [5], 100 nM. In addition, the Increase in the experiment filed under Rattus norvegicus [3] worked out at 10%. Moreover, the MED in the experiment on Rattus norvegicus [4] was 2 µmol/kg. The compound also displayed a Specificity in experiment [6] of more than 7580.
For `CN(CC(O)CON=C(C1CC1)C1CC1)c1ccccc1` (stereo unspecified), in the experiment listed under Cavia porcellus [2], the Kb was 794000 nM.
Take `Cc1cccc(NCC(O)CON=C(C2CC2)C2CC2)n1` (stereo unspecified): the Kb in the experiment listed under Cavia porcellus [2] is 10000 nM.
